# Source: patent US20200123127A1, “REMOVAL OF SENESCENCE-ASSOCIATED MACROPHAGES” (EVERON BIOSCIENCES, INC., priority 2016, published 2020)
# Read-outs that look alike come from different tables or passages of the source.
# What was measured:
# [1] = test system: A549 lung adenocarcinoma cells; assay: Anti-senescent cytotoxicity, senescent vs proliferating A549; type: cell-based, Human; settings: for IC50: Homo sapiens
# B16 cells = assay: In vitro growth and viability of B16 cells (resazurin); type: cell-based; settings: 72 hour exposure, up to 20 uM
# Excerpt: FIG. 4. Efficacy of A1.1 analogs in the senescence-enhanced B16 metastasis model. (A) Quantification of metastatic nodules by H&E morphometric analysis, and the resulting reduction in tumor burden (%) compared to vehicle control. (B) Quantitation morphometric analysis of lungs excised from irradiated mice treated with analogs of A1.1 post-inoculation of B16 cell intravenously, along with quantitation of morphometric analysis, are provided. (C) In vitro testing of A1.1 and analogs against the growth and viability of B16 cells, as assessed by the resazurin viability assay after 72 hour exposure to compounds compared to non-treated controls.
# The role of senescent cells in the promotion of metastatic potential of cancer cells has also been described [Patent WO 2013090645 A1; Campisi, J. (2015). Cancer and Aging: Rival Demons]. […] To test the efficacy of A1.1, irradiated (11 Gy followed by bone-marrow transplantation) and non-irradiated C57BL/6 mice received B16 melanoma cells via tail vein injection were subsequently (72 hours later) administered A1.1 (20 mg/kg) intraperitoneally once a day for 5 consecutive days.
# Synthesized analogs were also tested in vivo, to assess whether optimized structures are capable of showing activity against senescence-mediated B16 lung metastasis in irradiated mice (FIG. 4B). […]
# [2] = test system: SK-Mel-103 melanoma cells; assay: Anti-senescent cytotoxicity, senescent vs proliferating SK-Mel-103; type: cell-based, Human; settings: for IC50: Homo sapiens
# [3] = test system: RWPE-1 normal prostate epithelial cells; assay: dnPTEN-induced senescence model in RWPE-1 cells (SA-beta-Gal and methylene blue staining); type: cell-based; settings: 10 uM for 72 hours
# Method: FIG. 3. Activity of A1.1 and analog A1.12 in a model of dnPTEN-induced senescence in RWPE-1 normal prostate epithelial cells. A population of transduced RWPE-1 cells containing doxycycline-inducible dnPTEN was senesced via 1 ug/ml doxycycline for 7 days. Cells which bypass senescence continued to proliferate to form a confluent monolayer. The mixed population of senescent and proliferating cells was treated with A1.1 and A1.12 at 10 uM for 72 hours. SA-beta-Gal staining was used to monitor the amount of senescent cells of treatment groups compared to non-treated control. In addition, methylene blue was used to quantitate overall cell mass, which was comprised mostly of the non-senescent, proliferating cells. Treatment with the anti-senescent compounds led to a substantial decrease in SA-beta-Gal staining, while the amount of methylene blue staining was less affected.
# Senescent cells are strongly associated with benign prostate hyperplasia (BPH) and the development of prostate cancer [Vital, P. et al. (2014) The Senescence-Associated Secretory Phenotype Promotes Benign Prostatic Hyperplasia. Am J Pathol, 184(3): 721-731; Burton, D. et al. (2013). Androgen Deprivation-Induced Senescence Promoted Outgrowth of Anderogen-Refractory Protstate Cancer Cells. PLOS One, 8(6):e68003]. […] We sought to evaluate the efficacy of our compounds in a model of RWPE-1 normal prostate epithelial cells transduced with a construct for inducible loss of PTEN function [doxycycline-inducible expression of a dominant-negative PTEN (dnPTEN) mutant]. In the presence of doxycycline, a fraction of the population of transduced cells became senescent, while cells bypassing senescence continued to grow until a confluent monolayer was formed.
# [4] = test system: AdMSC primary adipose-derived mesenchymal stromal cells; assay: Anti-senescent cytotoxicity, senescent vs proliferating AdMSC; type: cell-based, Human; settings: for IC50: Homo sapiens
# [5] = test system: human neonatal dermal fibroblasts (NDF); assay: Resazurin viability assay, senescent vs proliferating/quiescent human neonatal dermal fibroblasts; type: cell-based; settings: for IC50: Homo sapiens, Fibroblast
# [6] = test system: p16(Ink4a) expression in adipose tissue macrophages; assay: Poly(I:C) in chronologically aged p16Ink4a/Luc mice; type: in vivo, mouse
# Method: Given that macrophages contribute to the elevated p16(Ink4a) expression observed in aged mice, we investigated whether this expression was susceptible to immunomodulatory regulation. Chronologically aged mice (83-weeks old) were treated with Poly(I:C) and the luminescence of individual organs was quantitated via IVIS. […] Thus, the observed decrease in the luciferase signal in adipose tissue upon treatment with Poly(I:C) was not accompanied by the depletion of macrophages.
compound,measurement,setting,value
CCOC(=O)c1sc(SCc2ccccc2)c2c1CC(c1ccc(OC)cc1)C/C2=N\O (stereo not shown) [Example A1.1],Selectivity (Prolif/Sen),"[1]; A549, Bleomycin",3.7
same,Selectivity (Prolif/Sen),"[1]; A549, Irradiation",4.5
same,IC50,"[1]; light or radiation study, A549, senescence induction: Irradiation, read-out: Activity against Senescent Cells (IC50; uM)",3.7 µM
same,IC50,"[1]; A549, senescence induction: Bleomycin, read-out: Activity against Senescent Cells (IC50; uM)",4.5 µM
same,IC50,"[1]; A549 proliferating, read-out: Activity against Proliferating Cells (IC50; uM)",16.5 µM
same,B16 growth in vitro,B16 cells,did not inhibit
same,IC50,"[2]; SK-Mel-103, senescence induction: Bleomycin, read-out: Activity against Senescent Cells (IC50; uM)",5.6 µM
same,IC50,"[2]; SK-Mel-103 proliferating, read-out: Activity against Proliferating Cells (IC50; uM)",18.5 µM
same,Selectivity (Prolif/Sen),"[2]; SK-Mel-103, Bleomycin",3.3
same,proliferating cells / overall cell mass (methylene blue staining),[3],inhibit growth of proliferating cells
same,senescent cells (number of SA-β-Gal-positive cells),[3]; dnPTEN-induced senescence,selective elimination of senescent cells
same,Selectivity (Prolif/Sen),"[4]; AdMSC, Bleomycin",2.3
same,IC50,"[4]; AdMSC proliferating, read-out: Activity against Proliferating Cells (IC50; uM)",12.6 µM
same,IC50,"[4]; AdMSC, senescence induction: Bleomycin, read-out: Activity against Senescent Cells (IC50; uM)",5.6 µM
same,sensitivity of senescent vs acutely damaged or proliferating NDF cells,"[5]; 1.875-30 μM, 72 hours, bleomycin or 15 Gy senescent vs 4 Gy acutely damaged",greater sensitivity
same,IC50,"[5]; NDF proliferating, read-out: Activity against Proliferating Cells (IC50; uM)",18.7 µM
same,IC50,"[5]; NDF, senescence induction: Bleomycin, read-out: Activity against Senescent Cells (IC50; uM)",3.5 µM
same,IC50,"[5]; NDF, senescence induction: Busulfan, read-out: Activity against Senescent Cells (IC50; uM)",3.6 µM
same,IC50,"[5]; NDF, senescence induction: Doxorubicin, read-out: Activity against Senescent Cells (IC50; uM)",5.1 µM
same,IC50,"[5]; NDF, senescence induction: Etoposide, read-out: Activity against Senescent Cells (IC50; uM)",3.8 µM
same,IC50,"[5]; NDF, senescence induction: H2O2, read-out: Activity against Senescent Cells (IC50; uM)",3.2 µM
same,IC50,"[5]; NDF, senescence induction: H-Ras, read-out: Activity against Senescent Cells (IC50; uM)",8.9 µM
same,IC50,"[5]; NDF, senescence induction: Replicative (late passage), read-out: Activity against Senescent Cells (IC50; uM)",10.5 µM
same,IC50,"[5]; light or radiation study, NDF, senescence induction: Irradiation, read-out: Activity against Senescent Cells (IC50; uM)",6.5 µM
same,Selectivity (Prolif/Sen),"[5]; NDF, Busulfan",5.3
same,Selectivity (Prolif/Sen),"[5]; NDF, Doxorubicin",3.7
same,Selectivity (Prolif/Sen),"[5]; NDF, Etoposide",4.9
same,Selectivity (Prolif/Sen),"[5]; NDF, H2O2",5.9
same,Selectivity (Prolif/Sen),"[5]; NDF, H-Ras",2.1
same,Selectivity (Prolif/Sen),"[5]; NDF, Replicative (late passage)",1.8
same,number of viable senescent NDF cells,"[5]; concentrations as low as 2.5 μM, doxorubicin-, bleomycin- and gamma-irradiation-induced senescence, 72 hours",significantly reduced
Poly(I:C),"luminescence of other tissues (spleen, lungs, kidney, liver)",[6]; 83-weeks old mice,no significant effects
same,reduction in luminescence from visceral adipose tissue,"[6]; 83-weeks old mice, IVIS of organs",~4 fold
same,luciferase activity from isolated stromal vascular fraction vs saline,[6]; per cell or per gram of fat,significantly decreased
